From ChEMBL document CHEMBL3580640, “Design, Synthesis, and Structure-Activity Relationships of Pyridine-Based Rho Kinase (ROCK) Inhibitors” (J Med Chem, 2015)

Experiments:
Assay type in all cases: ADME, organism-based
Conditions in all cases: in vivo
[1] = tested on: Rattus norvegicus; assay: Volume of distribution at steady state in iv dosed rat
[2] = Cmax in po dosed rat; set-up: route oral
[3] = tested on: Rattus norvegicus; assay: Half life in iv dosed rat
[4] = AUC in iv dosed rat
[5] = AUC in po dosed rat
[6] = Cmax in iv dosed rat; set-up: route intravenous
[7] = Tmax in po dosed rat
[8] = tested on: Rattus norvegicus; assay: Clearance in iv dosed rat
[9] = Oral bioavailability in rat
[10] = Half life in po dosed rat

For `CS(=O)(=O)Nc1cccc(CC(=O)Nc2cc(-c3ccnc(F)c3)cs2)c1`, the Vdss [1] was 0.675 L/kg, the Cmax [2] was 3200 ng/mL and the t1/2 [3] was 2.6 h. The AUC [4] was 4310 ng·h/mL, the AUC [5] was 32600 ng·h/mL and the Cmax [6] was 2920 ng/mL. It also gave a Tmax [7] of 3 h, a clearance [8] of 3.45 mL/min/kg and a bioavailability [9] of 69%. It also gave a half-life [10] of 3.4 h.
